From patent US5405859A (priority 1993, dated 1995)
≈ marks a conversion by molar mass, not a printed value. Read-outs that look alike come from different tables or passages of the source.

Experiments:
[1] = test system: SW620 cells; test: Cancer cell screen (NCI protocol), SW620; conditions: Homo sapiens, SW-620, read-out: LOGIC50(W)
[2] = test system: MCF-7 cells; test: Cancer cell screen (NCI protocol), MCF-7; conditions: Homo sapiens, MCF7, read-out: LOGIC50(W)
[3] = test system: P388/AD cells; test: Cancer cell screen (NCI protocol), P388/AD; conditions: Mus musculus, P388, read-out: LOGIC50(W)
[4] = test system: OVCAR-5 cells; test: Cancer cell screen (NCI protocol), OVCAR-5; conditions: Homo sapiens, OVCAR-5, read-out: LOGIC50(W)
[5] = test system: SK-MEL5 cells; test: Cancer cell screen (NCI protocol), SK-MEL5; conditions: Homo sapiens, SK-MEL-5, read-out: LOGIC50(W)
[6] = test system: UO-31 cells; test: Cancer cell screen (NCI protocol), UO-31; conditions: Homo sapiens, UO-31, read-out: LOGIC50(W)
[7] = test system: HT29 cells; test: Cancer cell screen (NCI protocol), HT29; conditions: Homo sapiens, HT-29, read-out: LOGIC50(W)
[8] = test system: H322 cells; test: Cancer cell screen (NCI protocol), H322; conditions: NCI-H322, read-out: LOGIC50(W)
[9] = Initial screening, relative activities of the patellazoles
[10] = test system: LOVO cells; test: Cancer cell screen (NCI protocol), LOVO; conditions: Homo sapiens, read-out: LOGIC50(W)
[11] = test system: H520 cells; test: Cancer cell screen (NCI protocol), H520; conditions: Homo sapiens, NCI-H520, read-out: LOGIC50(W)
[12] = test system: H460 cells; test: Cancer cell screen (NCI protocol), H460; conditions: Homo sapiens, NCI-H460, read-out: LOGIC50(W)
[13] = test system: SN-12KI cells; test: Cancer cell screen (NCI protocol), SN-12KI; conditions: read-out: LOGIC50(W)
[14] = test system: SK-MES1 cells; test: Cancer cell screen (NCI protocol), SK-MES1; conditions: Homo sapiens, SK-MES-1, read-out: LOGIC50(W)
[15] = test system: P388 cells; test: Cancer cell screen (NCI protocol), P388; conditions: Mus musculus, P388, read-out: LOGIC50(W)
[16] = test system: A2780 cells; test: Cancer cell screen (NCI protocol), A2780; conditions: Homo sapiens, A2780, read-out: LOGIC50(W)
[17] = test system: A498 cells; test: Cancer cell screen (NCI protocol), A498; conditions: Homo sapiens, A498, read-out: LOGIC50(W)
[18] = test system: OVCAR-4 cells; test: Cancer cell screen (NCI protocol), OVCAR-4; conditions: Homo sapiens, OVCAR-4, read-out: LOGIC50(W)
[19] = test system: U-251 cells; test: Cancer cell screen (NCI protocol), U-251; conditions: Homo sapiens, U-251, read-out: LOGIC50(W)
[20] = test system: A704 cells; test: Cancer cell screen (NCI protocol), A704; conditions: Homo sapiens, A704, read-out: LOGIC50(W)
[21] = test system: EKV-X cells; test: Cancer cell screen (NCI protocol), EKV-X; conditions: Homo sapiens, EKVX, read-out: LOGIC50(W)
[22] = test system: MOLT-4 cells; test: Cancer cell screen (NCI protocol), MOLT-4; conditions: Homo sapiens, MOLT-4, read-out: LOGIC50(W)
[23] = test system: HL-60 cells; test: Cancer cell screen (NCI protocol), HL-60; conditions: Homo sapiens, HL-60, read-out: LOGIC50(W)
[24] = test system: OVCAR-8 cells; test: Cancer cell screen (NCI protocol), OVCAR-8; conditions: Homo sapiens, OVCAR-8, read-out: LOGIC50(W)
[25] = test system: MCF-7/A cells; test: Cancer cell screen (NCI protocol), MCF-7/A; conditions: MCF7a, read-out: LOGIC50(W)
[26] = test system: TE-671 cells; test: Cancer cell screen (NCI protocol), TE-671; conditions: Homo sapiens, TE-671, read-out: LOGIC50(W)
[27] = test system: standard group of cancer cells; test: Screen against standard group of cancer cells, whole panel; conditions: for .DELTA / .RANGE: log IC50, cell panel; for IC50: read-out: .AV.LOG IC50; for relative activity: review of Tables IV-VI
[28] = test system: SNB-19 cells; test: Cancer cell screen (NCI protocol), SNB-19; conditions: Homo sapiens, SNB-19, read-out: LOGIC50(W)
[29] = test system: SNB-75 cells; test: Cancer cell screen (NCI protocol), SNB-75; conditions: Homo sapiens, SNB-75, read-out: LOGIC50(W)
[30] = test system: SNB-44 cells; test: Cancer cell screen (NCI protocol), SNB-44; conditions: SNB44, read-out: LOGIC50(W)
[31] = test system: HSV-2; test: Antiviral testing, HSV-2; type: cell-based, herpes virus HSV-2; conditions: for HSV-2 (antiviral concentration): Vero host cells, kind of endpoint not given; for activity against herpes virus HSV-2: at concentrations not toxic for host cells (Vero)
Description: (§1) Substantially pure compounds of Patellazole B and C were screened for activity. These extracts from a marine tunicate (L. patella) were submitted for antiviral testing.

[32] = test system: VERO; test: Cytotoxicity in Vero host cells; type: cell-based; conditions: for Cytotoxicity Vero: Vero cells, kind of endpoint not given; for toxicity for the host cells: Vero, at concentrations active against HSV-1 and HSV-2
Description: as §1

[33] = test system: LOX cells; test: Cancer cell screen (NCI protocol), LOX; conditions: read-out: LOGIC50(W)
[34] = test system: HSV-1; test: Antiviral testing, HSV-1; type: cell-based, herpes virus HSV-1; conditions: for HSV-L (antiviral concentration): Vero host cells, kind of endpoint not given; for activity against herpes virus HSV-1: at concentrations not toxic for host cells (Vero)
Description: as §1

[35] = test system: A549 cells; test: Cancer cell screen (NCI protocol), A549; conditions: Homo sapiens, A549, read-out: LOGIC50(W)
[36] = test system: A322 cells; test: Cancer cell screen (NCI protocol), A322; conditions: read-out: LOGIC50(W)
[37] = Patellazole B versus Patellazole C

Row | SMILES | IC50 [4] [ng/mL] | IC50 [5] [ng/mL] | IC50 [7] [ng/mL] | relative activities of the patellazoles [9] | IC50 [10] [ng/mL] | IC50 [12] [ng/mL] | IC50 [13] [ng/mL] | IC50 [14] [ng/mL] | IC50 [15] [ng/mL] | IC50 [16] [ng/mL] | IC50 [17] [ng/mL] | IC50 [18] [ng/mL] | IC50 [19] [ng/mL] | IC50 [20] [ng/mL] | IC50 [21] [ng/mL] | IC50 [22] [ng/mL] | IC50 [25] [ng/mL] | IC50 [26] [ng/mL] | .DELTA [27] | .RANGE [27] | also measured
1 | CCC(C)C(=O)OC1(C)CCC(C)CC(O)C(C)C(=O)C(C)/C=C\CC(C)C(O)C(O)C(OC)/C(C)=C/C=C/C(C)C(C(C)(O)/C=C(/C)Cc2csc(C3(C)OC3C)n2)OC1=O (centres unmarked) [Patellazole A] | 0.0501 (≈ 0.0564 nM) | 0.158 (≈ 0.178 nM) | < 0.0316 | A>B>C | 0.0794 (≈ 0.0894 nM) | 0.0398 (≈ 0.0448 nM) | < 0.0316 | < 0.0316 | 0.1 (≈ 0.113 nM) | 0.0398 (≈ 0.0448 nM) | 0.0631 (≈ 0.071 nM) | 0.1 (≈ 0.113 nM) | < 0.0316 | 0.1 (≈ 0.113 nM) | 0.0794 (≈ 0.0894 nM) | 0.0794 (≈ 0.0894 nM) | 0.501 (≈ 0.564 nM) | < 0.0316 | 0.5 | 2.3 | IC50 [1]: 0.1 ng/mL (≈ 0.113 nM); IC50 [2]: 0.126 ng/mL (≈ 0.142 nM); IC50 [3]: 0.126 ng/mL (≈ 0.142 nM); IC50 [6]: 0.126 ng/mL (≈ 0.142 nM); IC50 [8]: 0.126 ng/mL (≈ 0.142 nM); IC50 [11]: 0.794 ng/mL (≈ 0.894 nM); IC50 [23]: 0.126 ng/mL (≈ 0.142 nM); IC50 [24]: 0.1 ng/mL (≈ 0.113 nM); IC50 [27]: 0.0977 ng/mL (≈ 0.11 nM); relative activity [27]: slightly more active than Patellazole B; IC50 [28]: 0.0794 ng/mL (≈ 0.0894 nM); IC50 [29]: 6.31 ng/mL (≈ 7.1 nM)
2 | COC1/C(C)=C/C=C/C(C)C(C(C)(O)/C=C(/C)Cc2csc(C3(C)OC3C)n2)OC(=O)C(C)(OC(=O)C(C)C(C)O)CCC(C)CC(O)C(C)C(=O)C(C)/C=C\CC(C)C(O)C1O (centres unmarked) [Patellazole B] | < 0.0316 | < 0.0316 | < 0.0316 | A>B>C | < 0.0316 | < 0.0316 | < 0.0316 | < 0.0316 | < 0.0316 | < 0.0316 | < 0.0316 | < 0.0316 | < 0.0316 | < 0.0316 | < 0.0316 | < 0.0316 | < 0.0316 | < 0.0316 | 0 | 0 | IC50 [30]: < 0.0316 ng/mL; IC50 [1]: < 0.0316 ng/mL; IC50 [2]: < 0.0316 ng/mL; IC50 [3]: < 0.0316 ng/mL; relative antiviral activity against HSV-2 [31, 37]: significantly more potent; HSV-2 (antiviral concentration) [31]: 0.06 µg/mL; activity against herpes virus HSV-2 [31]: showed activity; IC50 [6]: < 0.0316 ng/mL; IC50 [8]: < 0.0316 ng/mL; Cytotoxicity Vero [32]: 0.75 µg/mL; toxicity for the host cells [32]: not toxic; IC50 [33]: < 0.0316 ng/mL; relative antiviral activity against HSV-1 [34, 37]: significantly more potent; HSV-L (antiviral concentration) [34]: 0.0005 µg/mL; activity against herpes virus HSV-1 [34]: showed activity; IC50 [35]: < 0.0316 ng/mL; IC50 [27]: 0.0316 ng/mL (≈ 0.035 nM); relative activity [27]: significantly more active than Patellazole C; IC50 [28]: < 0.0316 ng/mL; IC50 [29]: < 0.0316 ng/mL
3 | COC1/C(C)=C/C=C/C(C)C(C(C)(O)/C=C(/C)Cc2csc(C3(C)OC3C)n2)OC(=O)C(C)(OC(=O)C(C)C(C)O)CCC(C)CC(O)C(C)C(=O)C(CO)/C=C\CC(C)C(O)C1O (centres unmarked) [Patellazole C] | 2.51 (≈ 2.73 nM) | 12.6 (≈ 13.7 nM) | 1 (≈ 1.09 nM) | generally less active | 6.31 (≈ 6.86 nM) | 7.94 (≈ 8.63 nM) | 10 (≈ 10.9 nM) | 7.94 (≈ 8.63 nM) | 12.6 (≈ 13.7 nM) | 5.01 (≈ 5.45 nM) | 10 (≈ 10.9 nM) | 7.94 (≈ 8.63 nM) | 7.94 (≈ 8.63 nM) | 79.4 (≈ 86.3 nM) | 10 (≈ 10.9 nM) | 7.94 (≈ 8.63 nM) | > 316 | 7.94 (≈ 8.63 nM) | 1.1 | 2.5 | HSV-2 (antiviral concentration) [31]: 0.80 µg/mL; activity against herpes virus HSV-2 [31]: showed activity; relative activities of the patellazoles ([9]; listed as C): A>B>C; Cytotoxicity Vero [32]: 4.0 µg/mL; toxicity for the host cells [32]: not toxic; HSV-L (antiviral concentration) [34]: 0.30 µg/mL; activity against herpes virus HSV-1 [34]: showed activity; IC50 [36]: 7.94 ng/mL (≈ 8.63 nM); IC50 [24]: 10 ng/mL (≈ 10.9 nM); IC50 [27]: 10.2 ng/mL (≈ 11.1 nM); IC50 [28]: 10 ng/mL (≈ 10.9 nM); IC50 [29]: > 31.6 ng/mL
